Reference: patent US20240360126A1, “PYRAZOLO[3,4-B]PYRIDINE COMPOUNDS FOR THE TREATMENT OF AUTOIMMUNE DISEASE” (Hoffmann-La Roche Inc., priority 2021, published 2024)

Molecular target: T1, TLR9 (Homo sapiens, UniProt Q9NR96)
T1 sequence (Q9NR96 26-1032): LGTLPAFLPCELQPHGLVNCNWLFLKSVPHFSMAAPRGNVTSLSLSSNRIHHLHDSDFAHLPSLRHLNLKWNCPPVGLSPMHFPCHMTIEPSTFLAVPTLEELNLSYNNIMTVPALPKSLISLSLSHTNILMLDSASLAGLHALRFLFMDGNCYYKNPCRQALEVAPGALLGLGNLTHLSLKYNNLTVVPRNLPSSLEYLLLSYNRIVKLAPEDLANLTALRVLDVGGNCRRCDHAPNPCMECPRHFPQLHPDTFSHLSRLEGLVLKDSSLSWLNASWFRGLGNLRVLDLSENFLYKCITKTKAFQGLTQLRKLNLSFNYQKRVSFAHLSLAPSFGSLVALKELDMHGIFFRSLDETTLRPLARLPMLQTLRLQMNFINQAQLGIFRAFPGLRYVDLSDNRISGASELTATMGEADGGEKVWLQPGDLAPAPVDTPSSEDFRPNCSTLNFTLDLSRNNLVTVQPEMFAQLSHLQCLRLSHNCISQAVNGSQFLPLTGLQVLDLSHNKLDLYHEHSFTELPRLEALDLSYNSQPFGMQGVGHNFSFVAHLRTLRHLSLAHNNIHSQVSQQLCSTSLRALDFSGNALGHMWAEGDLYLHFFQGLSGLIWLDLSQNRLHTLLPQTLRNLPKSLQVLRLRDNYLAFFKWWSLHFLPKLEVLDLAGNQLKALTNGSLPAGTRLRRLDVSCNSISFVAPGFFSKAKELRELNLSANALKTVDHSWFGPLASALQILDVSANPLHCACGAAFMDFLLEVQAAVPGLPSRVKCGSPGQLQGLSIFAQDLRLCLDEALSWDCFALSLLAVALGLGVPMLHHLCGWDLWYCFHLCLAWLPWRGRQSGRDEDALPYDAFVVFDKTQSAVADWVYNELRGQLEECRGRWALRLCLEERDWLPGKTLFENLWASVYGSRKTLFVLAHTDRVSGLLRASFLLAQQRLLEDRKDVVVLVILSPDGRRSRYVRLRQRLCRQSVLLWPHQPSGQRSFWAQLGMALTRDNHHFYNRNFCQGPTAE
Assay: HEK293-Blue-hTLR-9 cells assay
Type: cell-based
Set-up: host or cells: HEK293 (HEK-Blue hTLR9)
Settings: HEK293-Blue-hTLR9 cells, ODN2006 stimulation, 20 hrs; read-out: HEK/hTLR9 IC50
Source text: A stable HEK293-Blue-hTLR-9 cell line was purchased from InvivoGen (Cat. #: hkb-htlr9, San Diego, California, USA). These cells were originally designed for studying the stimulation of human TLR9 by monitoring the activation of NF-κB. A SEAP (secreted embryonic alkaline phosphatase) reporter gene was placed under the control of the IFN-β minimal promoter fused to five NF-κB and AP-1-binding sites. The SEAP was induced by activating NF-κB and AP-1 via stimulating HEK-Blue hTLR9 cells with TLR9 ligands. Therefore the reporter expression was declined by TLR9 antagonist under the stimulation of a ligand, such as ODN2006 (Cat. #: tlrl-2006-1, Invivogen, San Diego, California, USA), for incubation of 20 hrs. The cell culture supernatant SEAP reporter activity was determined using QiANTI-Blue™ kit (Cat. #: rep-qbl, Invivogen, San Diego, California, USA) at a wavelength of 640 nm, a detection medium that turns purple or blue in the presence of alkaline phosphatase.
HEK293-Blue-hTLR9 cells were incubated at a density of 250,000-450,000 cells/mL in a volume of 170 μL in a 96-well plate in Dulbecco's Modified Eagle's medium (DMEM) containing 4.5 g/L glucose, 50 U/mL penicillin, […], […], 10% (v/v) heat-inactivated fetal bovine serum with addition of 20 μL test compound in a serial dilution in the presence of final DMSO at 1% and 10 μL of 20 μM ODN2006 in above DMEM, perform incubation under 37° C. in a C02 incubator for 20 hrs. Then 20 μL of the supernatant from each well was incubated with 180 μl. Quanti-blue substrate solution at 37° C. for 2 h and the absorbance was read at 620˜655 nm using a spectrophotometer. The signaling pathway that TLR9 activation leads to downstream NF-κB activation has been widely accepted, and therefore similar reporter assay was modified for evaluating TLR9 antagonist.

SMILES | IC50
Cc1cc(N2CCC(c3ccc(N4CCNCC4)cn3)CC2)c2cnn(C)c2n1 [Example 2, 1,6-dimethyl-4-[4-(5-piperazin-1-yl-2-pyridyl)-1-piperidyl]pyrazolo[3,4-b]pyridine] | 0.142 µM
Cc1cc(N2CCC(c3cnc(N4CCNCC4)nc3C)CC2)c2cnn(C)c2n1 [Example 11, 1,6-dimethyl-4-[4-(4-methyl-2-piperazin-1-yl-pyrimidin-5-yl)-1-piperidyl]pyrazolo[3,4-b]pyridine] | 0.104 µM
Cc1cc(N2CCC(c3ccc(N4CCNCC4)cc3)CC2)c2cnn(C)c2n1 [Example 1, 1,6-dimethyl-4-[4-(4-piperazin-1-ylphenyl)-1-piperidyl]pyrazolo[3,4-b]pyridine] | 0.275 µM
COC[C@H]1CN(c2ccc([C@H]3CCN(c4cc(C)nc5c4cnn5C)C[C@@H]3C)nc2)CCN1 [Example 37, 4-[(3R,4S)-4-[5-[(3R)-3-(methoxymethyl)piperazin-1-yl]-2-pyridyl]-3-methyl-1-piperidyl]-1,6-dimethyl-pyrazolo[3,4-b]pyridine] | 0.332 µM
Cc1cc(N2CC[C@H](c3ccc(N4CC5(CNCCO5)C4)cn3)[C@@H](C)C2)c2cnn(C)c2n1 [Example 38, 2-[6-[(3R,4S)-1-(1,6-dimethylpyrazolo[3,4-b]pyridin-4-yl)-3-methyl-4-piperidyl]-3-pyridyl]-5-oxa-2,8-diazaspiro[3.5]nonane] | 0.192 µM
Cc1cc(N2CCC(c3cnc(N4CCNCC4)cn3)CC2)c2cnn(C)c2n1 [Example 3, 1,6-dimethyl-4-[4-(5-piperazin-1-ylpyrazin-2-yl)-1-piperidyl]pyrazolo[3,4-b]pyridine] | 0.124 µM
Cc1cc(N2CC[C@@H](c3ncc(N4CCOC[C@@H](N)C4)cc3C)[C@H](C)C2)c2cnn(C)c2n1 [Example 28, (6S)-4-[6-[(3S,4R)-1-(1,6-dimethylpyrazolo[3,4-b]pyridin-4-yl)-3-methyl-4-piperidyl]-5-methyl-3-pyridyl]-1,4-oxazepan-6-amine] | 0.126 µM
Cc1cc(N2CCC(c3ncc(N4CCNCC4)nc3C)[C@H](C)C2)c2cnn(C)c2n1 (single isomer, unassigned) [Example 22, 1,6-dimethyl-4-[cis-3-methyl-4-(3-methyl-5-piperazin-1-yl-pyrazin-2-yl)-1-piperidyl]pyrazolo[3,4-b]pyridine] | 0.315 µM
COC[C@H]1CN(c2cnc([C@@H]3CCN(c4cc(C)nc5c4cnn5C)C[C@H]3C)c(C)c2)CCN1 [Example 29, 4-[(3S,4R)-4-[5-[(3R)-3-(methoxymethyl)piperazin-1-yl]-3-methyl-2-pyridyl]-3-methyl-1-piperidyl]-1,6-dimethyl-pyrazolo[3,4-b]pyridine] | 0.238 µM
CO[C@@H]1CN(c2ccc([C@H]3CCN(c4cc(C)nc5c4cnn5C)C[C@@H]3C)nc2)C[C@H]1N [Example 36, (3R,4R)-1-[6-[(3R,4S)-1-(1,6-dimethylpyrazolo[3,4-b]pyridin-4-yl)-3-methyl-4-piperidyl]-3-pyridyl]-4-methoxy-pyrrolidin-3-amine] | 0.17 µM
Cc1cc(N2CCC(c3ncc(N4CCNCC4)cc3C)CC2)c2cnn(C)c2n1 [Example 7, 1,6-dimethyl-4-[4-(3-methyl-5-piperazin-1-yl-2-pyridyl)-1-piperidyl]pyrazolo[3,4-b]pyridine] | 0.052 µM
Cc1cc(N2CC[C@@H](c3ccc(N4CCNCC4)cn3)[C@H](C)C2)c2cnn(C)c2n1 [Example 34, 1,6-dimethyl-4-[(3S,4R)-3-methyl-4-(5-piperazin-1-yl-2-pyridyl)-1-piperidyl]pyrazolo[3,4-b]pyridine] | 0.165 µM
Cc1cc(N2CC[C@H](c3ccc(N4CCNCC4)cn3)[C@@H](C)C2)c2cnn(C)c2n1 [Example 35, 1,6-dimethyl-4-[(3R,4S)-3-methyl-4-(5-piperazin-1-yl-2-pyridyl)-1-piperidyl]pyrazolo[3,4-b]pyridine] | 0.158 µM
Cc1cc(N2CCC(c3ncc(N4CCNCC4)cc3C)[C@H](C)C2)c2cnn(C)c2n1 (single isomer, unassigned) [Example 25, 1,6-dimethyl-4-[trans-3-methyl-4-(3-methyl-5-piperazin-1-yl-2-pyridyl)-1-piperidyl]pyrazolo[3,4-b]pyridine] | 0.098 µM
Cc1cc(N2CCC(c3cnc(N4CCNCC4)cc3C)[C@H](C)C2)c2cnn(C)c2n1 (single isomer, unassigned) [Example 21, 1,6-dimethyl-4-[trans-3-methyl-4-(4-methyl-6-piperazin-1-yl-3-pyridyl)-1-piperidyl]pyrazolo[3,4-b]pyridine] | 0.372 µM
